Laboratory results as given in patent US9611267B2, “Substituted tricyclic compounds as FGFR inhibitors” (Incyte Corporation, priority 2012, dated 2017).
Like-named read-outs stand apart in the source and are kept apart here.

Tests used:
Format in all cases: biochemical
FGFR3 = FGFR3 (Homo sapiens (Human), UniProt P22607); assay: FGFR enzymatic assay (FRET peptide phosphorylation), FGFR3
Summary of the method: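 FRET assay of peptide phosphorylation by FGFR3 in HEPES pH 7.5 buffer with MgCl2, EGTA, Tween-20 and DTT. Enzyme was pre-incubated 5-10 min with compound, and the reaction ran 1 hr at 25° C. IC50 came from a variable-slope sigmoidal fit.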

FGFR1 = FGFR1 (Homo sapiens (Human), UniProt P11362); assay: FGFR enzymatic assay (FRET peptide phosphorylation), FGFR1
Chain of FGFR1 (P11362 22-822): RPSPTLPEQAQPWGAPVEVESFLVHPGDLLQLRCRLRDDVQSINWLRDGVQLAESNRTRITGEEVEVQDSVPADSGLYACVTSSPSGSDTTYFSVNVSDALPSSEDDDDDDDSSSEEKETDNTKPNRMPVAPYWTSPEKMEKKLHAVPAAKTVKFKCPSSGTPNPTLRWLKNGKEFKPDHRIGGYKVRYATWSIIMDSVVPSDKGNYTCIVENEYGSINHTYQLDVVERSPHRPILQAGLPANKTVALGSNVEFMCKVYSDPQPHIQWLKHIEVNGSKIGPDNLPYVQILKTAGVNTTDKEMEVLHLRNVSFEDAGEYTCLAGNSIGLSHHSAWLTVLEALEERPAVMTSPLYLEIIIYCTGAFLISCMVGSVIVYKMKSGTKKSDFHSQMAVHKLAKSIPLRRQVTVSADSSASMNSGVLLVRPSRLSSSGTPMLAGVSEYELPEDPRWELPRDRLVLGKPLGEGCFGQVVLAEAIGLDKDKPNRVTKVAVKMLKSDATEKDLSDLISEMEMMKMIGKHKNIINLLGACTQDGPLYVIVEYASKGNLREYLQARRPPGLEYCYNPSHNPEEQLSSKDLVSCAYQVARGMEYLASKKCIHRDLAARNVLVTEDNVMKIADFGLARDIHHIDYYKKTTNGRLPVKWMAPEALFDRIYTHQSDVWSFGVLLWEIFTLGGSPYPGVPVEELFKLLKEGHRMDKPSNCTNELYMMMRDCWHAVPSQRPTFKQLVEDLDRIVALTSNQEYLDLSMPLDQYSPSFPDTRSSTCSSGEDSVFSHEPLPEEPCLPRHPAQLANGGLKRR
Summary of the method: (§1)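 Recombinant kinase was pre-incubated 5–10 min with serially diluted inhibitor in HEPES buffer (10 mM MgCl2, 5 mM DTT, pH 7.5; buffer described for FGFR3). Peptide phosphorylation ran 1 h at 25 °C and was detected by FRET after ~1 h equilibration. IC50 values come from variable-slope sigmoidal fits.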

FGFR2 = FGFR2 (Homo sapiens (Human), UniProt P21802); assay: FGFR enzymatic assay (FRET peptide phosphorylation), FGFR2
Chain of FGFR2 (P21802 22-821): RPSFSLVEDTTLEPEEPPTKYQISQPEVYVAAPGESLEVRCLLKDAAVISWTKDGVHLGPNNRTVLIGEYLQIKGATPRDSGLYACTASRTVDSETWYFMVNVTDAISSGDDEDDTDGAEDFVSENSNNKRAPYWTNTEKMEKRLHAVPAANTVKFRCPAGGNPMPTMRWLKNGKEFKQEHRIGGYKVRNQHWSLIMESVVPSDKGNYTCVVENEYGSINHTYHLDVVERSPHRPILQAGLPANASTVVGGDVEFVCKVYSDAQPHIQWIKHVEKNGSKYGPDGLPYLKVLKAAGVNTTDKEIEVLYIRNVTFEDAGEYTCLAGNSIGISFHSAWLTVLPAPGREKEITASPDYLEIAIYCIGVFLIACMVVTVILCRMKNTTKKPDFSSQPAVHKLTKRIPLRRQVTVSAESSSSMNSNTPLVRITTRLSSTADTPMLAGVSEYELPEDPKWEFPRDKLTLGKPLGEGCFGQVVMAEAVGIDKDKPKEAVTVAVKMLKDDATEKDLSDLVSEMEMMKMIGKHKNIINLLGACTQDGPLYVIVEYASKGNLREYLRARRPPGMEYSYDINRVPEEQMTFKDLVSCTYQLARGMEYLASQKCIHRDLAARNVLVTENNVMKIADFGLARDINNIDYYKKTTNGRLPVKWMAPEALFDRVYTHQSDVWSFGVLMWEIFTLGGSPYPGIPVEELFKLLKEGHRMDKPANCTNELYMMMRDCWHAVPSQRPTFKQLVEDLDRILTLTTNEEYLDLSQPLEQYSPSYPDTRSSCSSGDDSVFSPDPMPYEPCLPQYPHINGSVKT
Summary of the method: as §1

[1] = FGFR3 enzyme (Millipore), ATP 140 μM
[2] = FGFR1 enzyme 0.02 nM, ATP 210 μM
[3] = FGFR2 enzyme 0.01 nM, ATP 100 μM

Chain of FGFR3 (P22607 23-806): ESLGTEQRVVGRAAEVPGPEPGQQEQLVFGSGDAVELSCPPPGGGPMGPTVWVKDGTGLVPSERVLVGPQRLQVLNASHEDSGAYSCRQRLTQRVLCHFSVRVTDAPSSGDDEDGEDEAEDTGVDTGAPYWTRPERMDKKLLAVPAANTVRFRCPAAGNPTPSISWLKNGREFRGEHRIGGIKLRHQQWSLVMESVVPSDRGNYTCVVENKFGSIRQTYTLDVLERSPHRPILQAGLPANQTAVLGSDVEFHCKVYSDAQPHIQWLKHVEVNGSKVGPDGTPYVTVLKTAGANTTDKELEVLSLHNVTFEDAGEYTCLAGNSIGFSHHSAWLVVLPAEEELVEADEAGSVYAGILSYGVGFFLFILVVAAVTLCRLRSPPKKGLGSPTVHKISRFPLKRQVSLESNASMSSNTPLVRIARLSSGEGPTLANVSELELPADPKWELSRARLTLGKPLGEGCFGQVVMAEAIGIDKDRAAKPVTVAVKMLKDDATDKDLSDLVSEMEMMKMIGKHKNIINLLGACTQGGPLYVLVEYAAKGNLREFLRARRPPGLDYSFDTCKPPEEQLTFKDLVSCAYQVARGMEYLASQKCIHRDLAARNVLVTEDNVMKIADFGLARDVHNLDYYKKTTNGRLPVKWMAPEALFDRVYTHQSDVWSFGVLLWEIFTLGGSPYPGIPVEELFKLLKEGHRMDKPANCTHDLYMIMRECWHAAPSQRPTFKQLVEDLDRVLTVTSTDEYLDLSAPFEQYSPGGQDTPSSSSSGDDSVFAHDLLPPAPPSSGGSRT

Compound | IC50 (FGFR3; [1]) [nM] | IC50 (FGFR1; [2]) [nM] | IC50 (FGFR2; [3]) [nM] | IC50 (FGFR3) [nM] | IC50 (FGFR1) [nM] | IC50 (FGFR2) [nM]
COc1cc(OC)c(F)c(N2Cc3cnc4c(c3N(CC3CC3)C2=O)CC(=O)N4)c1F [Example 50, 1-(Cyclopropylmethyl)-3-(2,6-difluoro-3,5-dimethoxyphenyl)-3,4,7,9-tetrahydro-1H-pyrrolo[3′,2′:5,6]pyrido[4,3-d]pyrimidine-2,8-dione] | < 100 | < 100 | < 100 |  |  | 
COc1cc(OC)c(F)c(N2Cc3cnc4[nH]c(CCN5CCOCC5)cc4c3N(CCO)C2=O)c1F [Example 146, 3-(2,6-difluoro-3,5-dimethoxyphenyl)-1-(2-hydroxyethyl)-8-(2-morpholin-4-ylethyl)-1,3,4,7-tetrahydro-2H-pyrrolo[3′,2′:5,6]pyrido[4,3-d]pyrimidin-2-one] | < 100 | < 100 | < 100 |  |  | 
COc1cc(OC)c(Cl)c(N2Cc3cnc4c(c3N(c3cccc(F)c3F)C2=O)CC(=O)N4)c1F [Example 124, 3-(2-chloro-6-fluoro-3,5-dimethoxyphenyl)-1-(2,3-difluorophenyl)-3,4,7,9-tetrahydro-1H-pyrrolo[3′,2′:5,6]pyrido[4,3-d]pyrimidine-2,8-dione] | < 100 | < 100 | < 100 |  |  | 
COc1cc(OC)c(Cl)c(N2Cc3cnc4[nH]c(C(=O)N(C)C)cc4c3N(C)C2=O)c1 [Example 24, 3-(2-Chloro-3,5-dimethoxyphenyl)-N,N,1-trimethyl-2-oxo-2,3,4,7-tetrahydro-1H-pyrrolo[3′,2′:5,6]pyrido[4,3-d]pyrimidine-8-carboxamide] | < 100 | < 100 | < 100 |  |  | 
COc1cc(OC)c(F)c(N2Cc3cnc4[nH]c(CN5CCC(C#N)CC5)cc4c3C(C)(C)C2=O)c1F [Example 155, 1-{[7-(2,6-difluoro-3,5-dimethoxyphenyl)-9,9-dimethyl-8-oxo-6,7,8,9-tetrahydro-3H-pyrrolo[2,3-c]-2,7-naphthyridin-2-yl]methyl}piperidine-4-carbonitrile] | < 100 | < 100 | < 100 |  |  | 
COc1cc(OC)c(F)c(N2Cc3cnc4[nH]ccc4c3C3(CCN(C)CC3)C2=O)c1F [Example 151, 7′-(2,6-difluoro-3,5-dimethoxyphenyl)-1-methyl-6′,7′-dihydrospiro[piperidine-4,9′-pyrrolo[2,3-c][2,7]naphthyridin]-8′(3′H)-one] |  |  |  | < 100 | < 100 | < 100
COc1cc(OC)c(F)c(N2Cc3cnc4[nH]c(CCN5CCOCC5)cc4c3N(C)C2=O)c1F [Example 114, 3-(2,6-difluoro-3,5-dimethoxyphenyl)-1-methyl-8-(2-morpholin-4-ylethyl)-1,3,4,7-tetrahydro-2H-pyrrolo[3′,2′:5,6]pyrido[4,3-d]pyrimidin-2-one] | < 100 | < 100 | < 100 |  |  | 
COc1cc(OC)c(F)c(N2Cc3cnc4ccsc4c3N(C)C2=O)c1F [Example 38, 3-(2,6-Difluoro-3,5-dimethoxyphenyl)-1-methyl-3,4-dihydrothieno[2′,3′:5,6]pyrido[4,3-d]pyrimidin-2(1H)-one] | < 100 | < 100 | < 100 |  |  | 
COc1cc(OC)c(F)c(N2Cc3cnc4[nH]c(C(=O)N5CCC(C#N)C5)cc4c3N(C)C2=O)c1 (stereo not drawn) [Example 29, 1-{[3-(2-Fluoro-3,5-dimethoxyphenyl)-1-methyl-2-oxo-2,3,4,7-tetrahydro-1H-pyrrolo[3′,2′:5,6]pyrido[4,3-d]pyrimidin-8-yl]carbonyl}pyrrolidine-3-carbonitrile] | < 100 | < 100 | < 100 |  |  | 
COc1cc(OC)c(F)c(N2Cc3cnc4c(c3N(C3CCC3)C2=O)CC(=O)N4)c1F [Example 64, 1-cyclobutyl-3-(2,6-difluoro-3,5-dimethoxyphenyl)-3,4,7,9-tetrahydro-1H-pyrrolo[3′,2′:5,6]pyrido[4,3-d]pyrimidine-2,8-dione] | < 100 | < 100 | < 100 |  |  | 
CCN1C(=O)N(c2c(F)c(OC)cc(OC)c2F)Cc2cnc3c(c21)CC(=O)N3 [Example 49, 3-(2,6-Difluoro-3,5-dimethoxyphenyl)-1-ethyl-3,4,7,9-tetrahydro-1H-pyrrolo[3′,2′:5,6]pyrido[4,3-d]pyrimidine-2,8-dione] | < 100 | < 100 | < 100 |  |  | 
COc1cc(OC)c(F)c(N2Cc3cnc4[nH]nc(C5CCN(C)CC5)c4c3N(C)C2=O)c1F [Example 55, 3-(2,6-Difluoro-3,5-dimethoxyphenyl)-1-methyl-9-(1-methylpiperidin-4-yl)-1,3,4,7-tetrahydro-2H-pyrazolo[4′,3′:5,6]pyrido[4,3-d]pyrimidin-2-one] | < 100 | < 100 | < 100 |  |  | 
COc1cc(OC)c(Cl)c(N2Cc3cnc4[nH]ncc4c3N(C3CC3)C2=O)c1F [Example 101, 3-(2-chloro-6-fluoro-3,5-dimethoxyphenyl)-1-cyclopropyl-1,3,4,7-tetrahydro-2H-pyrazolo[4′,3′:5,6]pyrido[4,3-d]pyrimidin-2-one] | < 100 | < 100 | < 100 |  |  | 
COc1cc(OC)c(F)c(N2Cc3cnc4[nH]c(CN5CC(O)C5)cc4c3C(C)(C)C2=O)c1F [Example 206, 7-(2,6-difluoro-3,5-dimethoxyphenyl)-2-[(3-hydroxyazetidin-1-yl)methyl]-9,9-dimethyl-3,6,7,9-tetrahydro-8H-pyrrolo[2,3-c]-2,7-naphthyridin-8-one] | < 100 | < 100 | < 100 |  |  | 
COc1cc(OC)c(F)c(N2Cc3cnc4[nH]c(CCN5CCN(C)CC5)cc4c3N(c3ccc(F)cc3)C2=O)c1F [Example 226, 3-(2,6-difluoro-3,5-dimethoxyphenyl)-1-(4-fluorophenyl)-8-[2-(4-methylpiperazin-1-yl)ethyl]-1,3,4,7-tetrahydro-2H-pyrrolo[3′,2′:5,6]pyrido[4,3-d]pyrimidin-2-one] | < 100 | < 100 | < 100 |  |  | 
CCn1cc(N2C(=O)N(c3c(F)c(OC)cc(OC)c3F)Cc3cnc4[nH]ncc4c32)cn1 [Example 172, 3-(2,6-difluoro-3,5-dimethoxyphenyl)-1-(1-ethyl-1H-pyrazol-4-yl)-1,3,4,7-tetrahydro-2H-pyrazolo[4′,3′:5,6]pyrido[4,3-d]pyrimidin-2-one] | < 100 | < 100 | < 100 |  |  | 
COc1cc(OC)c(F)c(N2Cc3cnc4[nH]ccc4c3N(C3CC3)C2=O)c1F [Example 45, 1-Cyclopropyl-3-(2,6-difluoro-3,5-dimethoxyphenyl)-1,3,4,7-tetrahydro-2H-pyrrolo[3′,2′:5,6]pyrido[4,3-d]pyrimidin-2-one] | < 100 | < 100 | < 100 |  |  | 
COc1cc(OC)c(F)c(N2Cc3cnc4[nH]ccc4c3N(c3cccc(C#N)c3)C2=O)c1F [Example 82, 3-[3-(2,6-difluoro-3,5-dimethoxyphenyl)-2-oxo-2,3,4,7-tetrahydro-1H-pyrrolo[3′,2′:5,6]pyrido[4,3-d]pyrimidin-1-yl]benzonitrile] | < 100 | < 100 | < 100 |  |  | 
COc1cc(OC)c(F)c(N2Cc3cnc4[nH]ncc4c3OC2=O)c1F [Example 62, 3-(2,6-difluoro-3,5-dimethoxyphenyl)-4,7-dihydropyrazolo[4′,3′:5,6]pyrido[3,4-e][1,3]oxazin-2(3H)-one] | < 100 | 100 to 500 | 100 to 500 |  |  | 
